What was measured:
[1] = target: GST-Bcl-2 (Homo sapiens, UniProt P10415); test: TR-FRET binding assay, GST-Bcl-2 with F-Bak peptide probe; conditions: for Ki: TR-FRET Binding Affinity
Outline: (§1)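 Displacement of a fluorescein-labelled Bak peptide from the GST-tagged protein was followed by time-resolved FRET with a terbium anti-GST donor after 3 h incubation at room temperature. Inhibition constants were calculated with Wang's equation.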

[2] = target: GST-Bcl-XL (Homo sapiens, UniProt Q07817); test: TR-FRET binding assay, GST-Bcl-XL with F-Bak peptide probe; conditions: TR-FRET Binding Affinity
Outline: as §1

[3] = GST-Bcl-XL, F-Bak peptide probe
[4] = TR-FRET, Bcl-XL Ki divided by Bcl-2 Ki
[5] = ratio of TR-FRET Ki values, Bcl-XL over Bcl-2

GST-Bcl-XL, sequence (Q07817 whole entry): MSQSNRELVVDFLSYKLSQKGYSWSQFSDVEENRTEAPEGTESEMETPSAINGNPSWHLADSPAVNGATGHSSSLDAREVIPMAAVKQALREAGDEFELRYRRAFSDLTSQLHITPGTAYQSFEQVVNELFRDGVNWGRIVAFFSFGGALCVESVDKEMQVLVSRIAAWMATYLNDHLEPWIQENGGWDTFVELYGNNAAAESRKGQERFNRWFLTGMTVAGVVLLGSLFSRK
GST-Bcl-2, sequence (P10415 whole entry): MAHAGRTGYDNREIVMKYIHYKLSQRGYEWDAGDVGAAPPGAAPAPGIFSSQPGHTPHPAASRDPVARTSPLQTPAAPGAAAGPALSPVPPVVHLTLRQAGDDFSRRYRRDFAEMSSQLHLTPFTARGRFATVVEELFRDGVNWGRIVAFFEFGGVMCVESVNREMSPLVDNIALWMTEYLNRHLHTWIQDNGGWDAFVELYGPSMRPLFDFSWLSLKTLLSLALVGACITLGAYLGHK

SMILES | Ki ([1]; GST-Bcl-2, F-Bak peptide probe) [nM] | Ki [2, 3] [nM] | Ki [1] [nM] | Binding selectivity ratio (Bcl-XL Ki/Bcl-2 Ki) [1, 4] | Ki [2] [nM] | Binding selectivity ratio (Bcl-XL Ki/Bcl-2 Ki) [1, 5]
CC1(C)CCC(CN2CCN(c3ccc(C(=O)NS(=O)(=O)c4ccc(NCC5CN(C6COC6)CCO5)c([N+](=O)[O-])c4)c(Oc4cccc5[nH]cnc45)c3)CC2)=C(c2ccc(Cl)cc2)C1 (stereo not shown) [Example 433, 2-(1H-benzimidazol-4-yloxy)-4-(4-{[2-(4-chlorophenyl)-4,4-dimethylcyclohex-1-en-1-yl]methyl}piperazin-1-yl)-N-[(3-nitro-4-{[(4-oxetan-3-ylmorpholin-2-yl)methyl]amino}phenyl)sulfonyl]benzamide] | < 0.01 | 2.29 |  |  |  | 
CC1(C)CCC(CN2CCN(c3ccc(C(=O)NS(=O)(=O)c4ccc(OCC5CCC6(CC5)COC6)c([N+](=O)[O-])c4)c(Oc4cccc5[nH]ncc45)c3)CC2)=C(c2ccc(Cl)cc2)C1 [Example 535, 4-(4-{[2-(4-chlorophenyl)-4,4-dimethylcyclohex-1-en-1-yl]methyl}piperazin-1-yl)-2-(1H-indazol-4-yloxy)-N-{[3-nitro-4-(2-oxaspiro[3.5]non-7-ylmethoxy)phenyl]sulfonyl}benzamide] |  |  | < 0.01 | >250.5 | 2.5 | 
CN(C)CC(=O)N1CCO[C@H](CNc2ccc(S(=O)(=O)NC(=O)c3ccc(N4CCN(CC5=C(c6ccc(Cl)cc6)CC(C)(C)CC5)CC4)cc3Oc3cccc4[nH]cnc34)cc2[N+](=O)[O-])C1 [Example 437, 2-(1H-benzimidazol-4-yloxy)-4-(4-{[2-(4-chlorophenyl)-4,4-dimethylcyclohex-1-en-1-yl]methyl}piperazin-1-yl)-N-{[4-({[(2R)-4-(N,N-dimethylglycyl)morpholin-2-yl]methyl}amino)-3-nitrophenyl]sulfonyl}benzamide] |  |  | < 0.01 |  | 0.514 | 
CC1(C)CCC(CN2CCN(c3ccc(C(=O)NS(=O)(=O)c4ccc(NC5CCN(CCCF)CC5)c([N+](=O)[O-])c4)c(Oc4ccc5[nH]ccc5c4)c3)CC2)=C(c2ccc(Cl)cc2)C1 [Example 235, 4-(4-{[2-(4-chlorophenyl)-4,4-dimethylcyclohex-1-en-1-yl]methyl}piperazin-1-yl)-N-[(4-{[1-(3-fluoropropyl)piperidin-4-yl]amino}-3-nitrophenyl)sulfonyl]-2-(1H-indol-5-yloxy)benzamide] | 0.252 | 58.2 |  |  |  | 
CC1CC(=O)NN=C1c1ccc(S(=O)(=O)NC(=O)c2ccc(N3CCN(Cc4ccccc4-c4ccc(Cl)cc4)CC3)cc2Oc2ccccc2)cc1 (stereo not shown) [Example 29, 4-{4-[(4′-chloro-1,1′-biphenyl-2-yl)methyl]piperazin-1-yl}-N-{[4-(4-methyl-6-oxo-1,4,5,6-tetrahydropyridazin-3-yl)phenyl]sulfonyl}-2-phenoxybenzamide] | 11.9 | > 660 |  |  |  | 
CN(C)CC[C@H](Nc1ccc(S(=O)(=O)NC(=O)c2ccc(N3CCN(Cc4ccccc4-c4ccc(Cl)cc4)CC3)cc2Oc2ccccc2)cc1[N+](=O)[O-])c1cccs1 [Example 161, 4-{4-[(4′-chloro-1,1′-biphenyl-2-yl)methyl]piperazin-1-yl}-N-[(4-{[(1S)-3-(dimethylamino)-1-thien-2-ylpropyl]amino}-3-nitrophenyl)sulfonyl]-2-phenoxybenzamide] | 1.71 | > 660 |  |  |  | 
CN1CCN(CCNc2ccc(S(=O)(=O)NC(=O)c3ccc(N4CCN(CC5=C(c6ccc(Cl)cc6)CC(C)(C)CC5)CC4)cc3Oc3ccc4[nH]ccc4c3)cc2[N+](=O)[O-])CC1 [Example 95, 4-(4-{[2-(4-chlorophenyl)-4,4-dimethylcyclohex-1-en-1-yl]methyl}piperazin-1-yl)-2-(1H-indol-5-yloxy)-N-[(4-{[2-(4-methylpiperazin-1-yl)ethyl]amino}-3-nitrophenyl)sulfonyl]benzamide] | 0.06 | 15.7 |  |  |  | 
CC1(C)CCC(CN2CCN(c3ccc(C(=O)NS(=O)(=O)c4cnc(OC[C@@H]5CN(C6CC6)CCO5)c(Cl)c4)c(Oc4cccc5[nH]cnc45)c3)CC2)=C(c2ccc(Cl)cc2)C1 [Example 503, 2-(1H-benzimidazol-4-yloxy)-N-[(5-chloro-6-{[(2S)-4-cyclopropylmorpholin-2-yl]methoxy}pyridin-3-yl)sulfonyl]-4-(4-{[2-(4-chlorophenyl)-4,4-dimethylcyclohex-1-en-1-yl]methyl}piperazin-1-yl)benzamide] |  |  | 0.062 | 2356.5 | 147 | 
CCN1CCCC1CNC(=O)c1cc(S(=O)(=O)NC(=O)c2ccc(N3CCN(Cc4ccccc4-c4ccc(Cl)cc4)CC3)cc2Oc2ccccc2)ccc1OC (stereo not shown) [Example 33, 4-{4-[(4′-chloro-1,1′-biphenyl-2-yl)methyl]piperazin-1-yl}-N-{[3-({[(1-ethylpyrrolidin-2-yl)methyl]amino}carbonyl)-4-methoxyphenyl]sulfonyl}-2-phenoxybenzamide] | 6.68 | 333 |  |  |  | 
CC1(C)CCC(CN2CCN(c3ccc(C(=O)NS(=O)(=O)c4ccc(NC[C@H]5CC[C@@](C)(O)CC5)c([N+](=O)[O-])c4)c(Oc4cccc5[nH]ncc45)c3)CC2)=C(c2ccc(Cl)cc2)C1 [Example 526, 4-(4-{[2-(4-chlorophenyl)-4,4-dimethylcyclohex-1-en-1-yl]methyl}piperazin-1-yl)-N-[(4-{[(cis-4-hydroxy-4-methylcyclohexyl)methyl]amino}-3-nitrophenyl)sulfonyl]-2-(1H-indazol-4-yloxy)benzamide] |  |  | < 0.01 | >467.9 | 4.68 | 
CC1(C)CCC(CN2CCN(c3ccc(C(=O)NS(=O)(=O)c4cnc(OC[C@]5(F)CC[C@](C)(O)CC5)c(Cl)c4)c(Oc4cccc5[nH]ncc45)c3)CC2)=C(c2ccc(Cl)cc2)C1 [Example 513, N-({5-chloro-6-[(trans-1-fluoro-4-hydroxy-4-methylcyclohexyl)methoxy]pyridin-3-yl}sulfonyl)-4-(4-{[2-(4-chlorophenyl)-4,4-dimethylcyclohex-1-en-1-yl]methyl}piperazin-1-yl)-2-(1H-indazol-4-yloxy)benzamide] |  |  | < 0.01 | >646.2 | 6.46 | 
CCN(C)C(=O)N1CCOC(CNc2ccc(S(=O)(=O)NC(=O)c3ccc(N4CCN(CC5=C(c6ccc(Cl)cc6)CC(C)(C)CC5)CC4)cc3Oc3cccc4[nH]ncc34)cc2[N+](=O)[O-])C1 (stereo not shown) [Example 506, 2-{[(4-{[4-(4-{[2-(4-chlorophenyl)-4,4-dimethylcyclohex-1-en-1-yl]methyl}piperazin-1-yl)-2-(1H-indazol-4-yloxy)benzoyl]sulfamoyl}-2-nitrophenyl)amino]methyl}-N-ethyl-N-methylmorpholine-4-carboxamide] |  |  | < 0.01 | >445.7 | 4.46 | 
CC1(C)CCC(CN2CCN(c3ccc(C(=O)NS(=O)(=O)c4ccc(NC[C@H]5CN(C6CC6)CCO5)c([N+](=O)[O-])c4)c(Oc4cccc5[nH]cnc45)c3)CC2)=C(c2ccc(Cl)cc2)C1 [Example 530, 2-(1H-benzimidazol-4-yloxy)-4-(4-{[2-(4-chlorophenyl)-4,4-dimethylcyclohex-1-en-1-yl]methyl}piperazin-1-yl)-N-{[4-({[(2S)-4-cyclopropylmorpholin-2-yl]methyl}amino)-3-nitrophenyl]sulfonyl}benzamide] |  |  | < 0.01 | >7666.0 | 76.7 | 
CN1CCC(CNc2ccc(S(=O)(=O)NC(=O)c3ccc(N4CCN(CC5=C(c6ccc(Cl)cc6)CC(C)(C)CC5)CC4)cc3Oc3cccc4[nH]cnc34)cc2[N+](=O)[O-])CC1 [Example 454, 2-(1H-benzimidazol-4-yloxy)-4-(4-{[2-(4-chlorophenyl)-4,4-dimethylcyclohex-1-en-1-yl]methyl}piperazin-1-yl)-N-[(4-{[(1-methylpiperidin-4-yl)methyl]amino}-3-nitrophenyl)sulfonyl]benzamide] |  |  | 0.026 |  | 18.9 | 
CC1(C)CCC(CN2CCN(c3ccc(C(=O)NS(=O)(=O)c4cnc(OCC5CCC(C)(O)CC5)c(Cl)c4)c(Oc4cccc5[nH]ncc45)c3)CC2)=C(c2ccc(Cl)cc2)C1 (stereo not drawn) [Example 493, N-({5-chloro-6-[(cis-4-hydroxy-4-methylcyclohexyl)methoxy]pyridin-3-yl}sulfonyl)-4-(4-{[2-(4-chlorophenyl)-4,4-dimethylcyclohex-1-en-1-yl]methyl}piperazin-1-yl)-2-(1H-indazol-4-yloxy)benzamide] |  |  | < 0.01 | >4188.3 | 41.9 | 
CN(C)CC(=O)N1CCO[C@@H](COc2ncc(S(=O)(=O)NC(=O)c3ccc(N4CCN(CC5=C(c6ccc(Cl)cc6)CC(C)(C)CC5)CC4)cc3Oc3cccc4[nH]ncc34)cc2Cl)C1 [Example 426, N-[(5-chloro-6-{[(2R)-4-(N,N-dimethylglycyl)morpholin-2-yl]methoxy}pyridin-3-yl)sulfonyl]-4-(4-{[2-(4-chlorophenyl)-4,4-dimethylcyclohex-1-en-1-yl]methyl}piperazin-1-yl)-2-(1H-indazol-4-yloxy)benzamide] | 0.007 | 4.31 |  |  |  | 604.2
CC1(C)CCC(CN2CCN(c3ccc(C(=O)NS(=O)(=O)c4cnc(OCCN5CCOCC5)c(C#N)c4)c(Oc4cccc5[nH]ccc45)c3)CC2)=C(c2ccc(Cl)cc2)C1 [Example 392, 4-(4-{[2-(4-chlorophenyl)-4,4-dimethylcyclohex-1-en-1-yl]methyl}piperazin-1-yl)-N-{[5-cyano-6-(2-morpholin-4-ylethoxy)pyridin-3-yl]sulfonyl}-2-(1H-indol-4-yloxy)benzamide] | 0.38 | 122 |  |  |  | 320.2

From patent US9073855B2, “BCL-2 selective apoptosis-inducing agents for the treatment of cancer and immune diseases” (AbbVie Inc., priority 2008, dated 2015)
